The values that follow come from patent publication US12201679B2, “Epitope-targeted peptide immunostimulants” (priority 2019, dated 2025).

“Also recorded” adds a separate entry of the source. Bridge positions count the residues as written; N and C are the ends. Square brackets hold non-standard residues; d marks the D form. Triazole bridges read from a SMILES are 1,4-linked. Ends that are not written are not given here. Peptide text beside a SMILES is read from it. Lys(N3) = [N-]=[N+]=NCCCC[C@H](N)C(=O)O; Pra = C#CC[C@H](N)C(=O)O

In test [1] the test system is K. pneumoniae cells, BAA 1705 and BAA 2146. The experiment in a line: Whole-cell ELISA, anti-DNP recruitment to bacterial cell surfaces. Type of test: cell-based, Klebsiella pneumoniae. Conditions: cy(LLFFF)-DNP 5 or 10 μM; dummy cy(HNGPT)-DNP 50 and 100 μM; plus anti-DNP. As for the experimental part: FIG. 12 is a plot of 450 nm absorbances obtained from a cell-based ELISA assay conducted on two strains of K. pneumoniae cells, BAA 1705 (black) and BAA 2146 (orange), that were either untreated or opsonized by EPIs (AR-PCCs) and/or antibodies. […] This establishes EPI-driven opsonization by cy(LLFFF)-DNP (SEQ ID NO:5).
The protocol for detecting anti-DNP recruitment to bacterial cell surfaces is as follows. Bacteria were incubated with the desired concentration of DNP-conjugated PCCs in PBS-BSA for 1 h at 37° C. Residual PCCs were washed off by using PBS-BSA and bacteria were incubated with anti-DNP antibody (1:1000) for 1 h at 37° C. After washing, bacteria were incubated with HRP conjugated secondary antibody (Bio-Rad) at a dilution of 1:10,000 for 1 h at 37° C. Unbound antibody was washed off by using PBS-BSA and the cells were then developed by using TMB reagent. The reaction was quenched using 2N H2SO4 and absorbance was measured at 450 nm. Anti-MrkA antibody was procured from Biorbyt (orb51318) and used at a concentration of 5 μg/mL, and K. pneumoniae antiserum was obtained from abcam (ab20947) and used at a concentration of 5 μg/mL.

For test [2], the system named is Salmonella typhimurium. The test is described as follows: Whole-cell ELISA, biotinylated PCC, S. typhimurium. Type of test: cell-based. The following applies: biotinylated PCC at 5 μM, FIG. 5C. Here is the method: (§1) Whole-cell ELISA data in FIG. 5C show strong signal from the two strains of K. pneumoniae (BAA 1705 and BAA 2146) but only weak signals from Escherichia coli (E. coli) or Salmonella typhimurium (S. typhimurium) cells. […] In these tests, droplets of phosphate buffered solution containing live bacteria or heat-killed bacteria and various concentrations of (NH4)2SO4 at 10 m or 30 m following mixing were imaged. Aggregation in each droplet was assessed by visual inspection and scored as indicating non-aggregated, low levels of aggregation, or extensive aggregation. All droplets were on a single glass slide and image acquisition of all droplets took less than a minute for each 10 m and 30 m time point.
(§2) Detection of the binding of biotinylated PCCs to bacterial surface was performed as follows. 10^8 bacteria from a culture grown overnight were used for each test. Bacteria were incubated with PBS containing 1% BSA (PBS-BSA) for 1 h at 37° C., washed once with PBS, and then incubated with 5 μM of the biotinylated PCC in PBS-BSA for 1 h at 37° C. After washing thrice with PBS to remove unbound PCCs, bacteria were incubated with Streptavidin-HRP (1:1000) for 1 h at 37° C. Bacteria were washed thoroughly and the TMB reagent was added until visible coloration was observed. The reaction was quenched using 2N H2SO4 and absorbance was measured at 450 nm.

The target of test [3] is full-length recombinant MrkA protein (Klebsiella pneumoniae, UniProt P12267). Type of test: binding. The following applies: sandwich ELISA, alanine scan and analogues. An excerpt: HPraGly is present before X1 in each peptide and Az4 follows X5 in each peptide.
Test [4] deals with wild type KPPR1 (ATCC 43816) cells. The test is described as follows: Whole-cell ELISA, biotinylated PCC, wild type KPPR1. It counts as cell-based, Klebsiella pneumoniae. Conditions: biotinylated PCC 5 μM down to 5 nM, G-CAA media. Here is the method: In this assay, bacteria are exposed to biotinylated PCC ligands, then SAv-horseradish peroxidase (SAv-HRP), and then developed to produce a colorometric signal that correlates with SAv-HRP binding.
Whole-cell ELISA assays were conducted on the wild type version of the clinically-relevant strain of K. pneumoniae, KPPR1 (ATCC 43816). Wild type KPPR1 cells were cultured in G-CAA media to promote fimbrial expression (54), and MrkA expression in KPPR1 was confirmed by a western blot (FIG. 5B inset, full blot in FIG. 9).
as §2

Test [5] has as its system K. pneumoniae (strains BAA 1705 & 2146). The experiment in a line: Whole-cell ELISA, biotinylated PCC, multidrug-resistant K. pneumoniae. It counts as cell-based, Klebsiella pneumoniae. Conditions: for whole-cell ELISA binding at high PCC concentration: strain BAA 1705, 50 μM PCC, LB or G-CAA; for whole-cell ELISA 450 nm absorbance, cells cultured in G-CAA (high MrkA) / whole-cell ELISA 450 nm absorbance, cells cultured in LB (low MrkA): strain BAA 1705, PCC 5 μM to 5 nM. Here is the method: Detection of the binding of biotinylated PCCs to bacterial surface was performed as follows. 10^8 bacteria from a culture grown overnight were used for each test. […] After washing thrice with PBS to remove unbound PCCs, bacteria were incubated with Streptavidin-HRP (1:1000) for 1 h at 37° C. Bacteria were washed thoroughly and the TMB reagent was added until visible coloration was observed. The reaction was quenched using 2N H2SO4 and absorbance was measured at 450 nm.

Test [6] deals with Escherichia coli. The test is described as follows: Whole-cell ELISA, biotinylated PCC, E. coli. It counts as cell-based. The following applies: biotinylated PCC at 5 μM, FIG. 5C. Here is the method:
as §1, §2

In test [7] the test system is MrkA-knockout KPPR1 cells. The experiment in a line: Whole-cell ELISA, biotinylated PCC, MrkA-knockout KPPR1. It counts as cell-based, Klebsiella pneumoniae. As for the experimental part: ELISA signals were only observed for K. pneumoniae cells (strain BAA 1705) cultured in G-CAA (FIG. 11A), when treated with PCCs at concentrations of 5 μM or lower.
as §2

The test system of test [8] is K. pneumoniae cells (strain BAA 1705). The experiment in a line: Gentamicin protection assay: phagocytosis and opsonophagocytic killing (OPK) by macrophages. It counts as cell-based, Klebsiella pneumoniae. As for the experimental part:
It also tested whether DNP-conjugated EPIs could promote the opsonophagocytic killing (OPK) of K. pneumoniae by macrophages. This was tested by using an OPK assay. Briefly, K. pneumoniae cells were treated with EPI and then anti-DNP antibody before being exposed to macrophages for either 6 or 24 hours. During this incubation period, macrophages that recognize K. pneumoniae cells will phagocytose them, and phagocytosed bacteria will remain viable for up to 6 hours, but within 24 hours are rendered inviable by OPK. Thus, macrophages were isolated after 6 and 24 hours of incubation with K. pneumoniae, lysed them, and plated and grew the lysate, which yielded bacterial colonies that reflect the phagocytosis (at 6 hrs) or OPK (at 24 hrs) of bacteria.
Given that cy(LLFFF)-DNP (SEQ ID NO:5) recruits antibodies to K. pneumoniae surfaces, it was expected that K. pneumoniae opsonized in this manner would be more susceptible to phagocytosis by macrophages. AR-PCC-driven phagocytosis and OPK were quantified by a gentamicin protection assay, as depicted in FIG. 7A. For this assay, K. pneumoniae cells (strain BAA 1705) were treated with cy(LLFFF)-DNP (SEQ ID NO:5), opsonized by anti-DNP antibodies, and then incubated with murine bone-marrow-derived macrophages (BMDMs). BMDMs were subsequently exposed to a solution containing gentamicin, to which K. pneumoniae strain BAA 1705 is susceptible, to kill any extracellular bacteria. Phagocytosed bacteria remain viable inside BMDMs for at least 1 h, yet are rendered inviable after 24 h by OPK (FIG. 13). Macrophages harvested at 1 h and 24 h were lysed and plated to generate bacterial colonies, which were enumerated to quantify phagocytosis and OPK.
Klebsiella pneumoniae BAA1705 was treated with DNP-PCCs followed by incubation with anti-DNP antibody, as described above in the “Cell-Based ELISAs” section. These opsonized bacteria were then used to infect BMDMs at a multiplicity of infection of 50 for 0.5 h at 37° C. Bacteria were then washed by using RPMI 1640 Media and BMDMs were left in cell culture medium containing gentamicin (100 μg/ml). After 1 h and 24 h BMDMs were washed to remove gentamicin and intracellular bacteria were harvested by lysing BMDMs in RPMI media containing 0.2% Triton X 100. Bacterial CFUs were enumerated by plating onto LB agar. Bacterial counts at 1 h indicated the degree of opsonization while those at 24 h served as a measure of microbicidal activity of macrophages. For these measurements, anti-MrkA antibody and K. pneumoniae antiserum were used at dilutions of 5 μg/mL each.

Test [9] deals with SynEp 1 (Klebsiella pneumoniae, UniProt P12267, V41X). The test is described as follows: Epitope selectivity sandwich ELISA, immobilized SynEp 1. Conditions: DNP-conjugated ligand at 500 nM, background biotin-PEG6.
Test [10] relates to K. pneumoniae cells (strain BAA 2146). The test is described as follows: Flow cytometry, recruitment of fluorescent anti-DNP antibodies. It counts as cell-based, Klebsiella pneumoniae. The following applies: 50 μM AR-PCC plus Alexafluor 488 anti-DNP.
The subject of test [11] is live MRSA cells or heat-killed MRSA cells. The test is described as follows: ELISA, PCC-driven SAv-HRP recruitment to MRSA cells. The following applies: biotinylated PCC, with or without 0.4 micrograms/mL tunicamycin. Type of test: cell-based, Staphylococcus aureus. As for the experimental part:
FIG. 16A-16B are graphs showing PCC-driven recruitment of streptavidin-horseradish peroxidase (SAv-HRP) conjugate to live MRSA cells (FIG. 16A) or heat-killed MRSA cells (FIG. 16B) cultured under different antibiotic conditions via enzyme-linked Immunosorbent Assays (ELISAs). All tests were conducted by coating the antigen (MRSA cells) onto the wells of 96-well plates and then exposing the wells solutions containing biotinylated PCCs, then SAv-HRP, then HRP substrate followed by detection via absorbance at 450 nm. Absorbance values greater than the “no PCC” background indicate that several PCCs recruit SAv-HRP to either live cells (FIG. 16A) or heat-killed cells (FIG. 16B) cultured either without antibiotic (“−tunicamycin”, blue bars) or with 0.4 micrograms/mL of tunicamycin (“+tunicamycin”, red), which reduces the expression of wall teichoic aids by MRSA. All measurements were conducted in triplicate and error bars reflect standard deviations. The PCC sequences are, from left to right in both graphs, SEQ ID NOs: 6, 23, 34, and 29.
The recruitment ability of selected PCCs was assessed by PCC-driven recruitment of streptavidin-horseradish peroxidase (SAv-HRP) conjugate to live MRSA cells (FIG. 16A) or heat-killed MRSA cells (FIG. 16B) cultured under different antibiotic conditions via enzyme-linked Immunosorbent Assays (ELISAs). […]

For the compound `CC(C)C[C@@H]1NC(=O)[C@H](CC(C)C)NC(=O)[C@@H](N)Cc2cn(nn2)CCCC[C@@H](C(=O)O)NC(=O)[C@H](Cc2ccccc2)NC(=O)[C@H](Cc2ccccc2)NC(=O)[C@H](Cc2ccccc2)NC1=O` [cy(LLFFF)] (H-[Pra]LLFFF[Lys(N3)]-OH; triazole 1-7), the “450 nm absorbance, anti-DNP opsonization of K. pneumoniae” value in test [1] was “much larger signal”. For the same compound, in [2], the “whole-cell ELISA signal, S. typhimurium” value is on record as “small absorbances; also recorded: weak signals”. In [3], the “binding to full-length MrkA compared to cy(LLFFF)” value is “highest affinity”. The “whole-cell ELISA signal, wild type KPPR1” value in [4] is “strong signals; also recorded: binds wild type MrkA-expressing KPPR1 cells”. In test [5], the “whole-cell ELISA binding at high PCC concentration” value was “bound K. pneumoniae cells regardless of MrkA-expression level; also recorded: strong and comparable ELISA signals”; the “whole-cell ELISA 450 nm absorbance, cells cultured in G-CAA (high MrkA)” value was “strong absorbances”; the “whole-cell ELISA 450 nm absorbance, cells cultured in LB (low MrkA)” value is “near-baseline absorbances”. Further, the “binding selectivity towards MrkA-expressing K. pneumoniae cells versus E. coli and S. typhimurium” value in test [5] (whole-cell ELISA, FIG. 5C) is “excellent binding selectivity”. Besides, the “whole-cell ELISA signal, E. coli” value in test [6] was “small absorbances; also recorded: weak signals”. Further, in test [7], the “whole-cell ELISA signal, MrkA-knockout KPPR1” value is “comparable to baseline; also recorded: but not MrkA-knockout KPPR1”. In test [8] (6 hrs), the “CFU, DNP-conjugated EPI plus anti-DNP, macrophages harvested at 6 hrs” value is given as “more than 80,000 CFU” and the “cell counts, DNP-conjugated EPI only (no antibody), macrophages harvested at 6 hrs” value was ~35,000. Besides, the “cell counts at 24 h (OPK)” value in [8] (24 h of incubation) is “little to no cell counts”. Moreover, the “ELISA signal on SynEp 1” value in test [9] is “Negative signals”.

For “cy(HNGPT)-DNP (cyclo(HNGPT); also: DNP label) [reference compound]”, the “450 nm absorbance, anti-DNP opsonization of K. pneumoniae” value in [1] is listed as “Much smaller signals”. The “fluorescence intensity of cells (predominantly)” value in [10] is reported as < 1.0×10^1 intensity.

On to cy(LLFFA) (cyclic), for which the “whole-cell ELISA signal, S. typhimurium” value in test [2] is given as “low signals”. The “whole-cell ELISA signal, wild type KPPR1” value in test [4] is reported as “much lower intensities; also recorded: Much lower binding”. In [5] (biotinylated PCC at 5 μM, FIG. 5C), the “whole-cell ELISA signal, K. pneumoniae BAA 1705 and BAA 2146” value is “low signals; also recorded: no or minimal binding above baseline”. In test [5], the “whole-cell ELISA binding at high PCC concentration” value is “bound K. pneumoniae cells regardless of MrkA-expression level; also recorded: strong and comparable ELISA signals”; the “whole-cell ELISA 450 nm absorbance, cells cultured in G-CAA (high MrkA)” value was “near-baseline absorbances”; the “whole-cell ELISA 450 nm absorbance, cells cultured in LB (low MrkA)” value is “near-baseline absorbances”. Also, the “whole-cell ELISA signal, E. coli” value in test [6] is “low signals”. Further, the “whole-cell ELISA signal, MrkA-knockout KPPR1” value in test [7] is given as “comparable to baseline; also recorded: Much lower binding”. Also, the “colony counts at 1 h, EPI plus anti-DNP antibody” value in [8] (5 μM AR-PCC, murine BMDMs, 1 h) is reported as 85,000 CFU.

Regarding “cy(akkrp) ([dA][dK][dK][dR][dP]; not fully specified (bridges); printed as cy(akkrp); also: cyclic, closure not given here)”, the “SAv-HRP recruitment to MRSA cells” value in test [11] was “Standout recruiting peptides”.

“cy(kpdew) ([dK][dP][dD][dE][dW]; not fully specified (bridges); printed as cy(kpdew); also: cyclic, closure not given here)”: in test [11], the “SAv-HRP recruitment to MRSA cells” value is “Standout recruiting peptides”.
